The text below walks through data of patent publication US20230355584A1, “COMPOSITIONS AND METHODS FOR THE TREATMENT OF LIPID-RELATED DISORDERS” (Raziel Therapeutics Ltd., priority 2020, published 2023).

Structures are written as SMILES.

Holding throughout (type): in vivo
For series [1], the system named is submental fat. As to the kind of experiment: Phase 2a study: submental fat volume by MRI. As to conditions: human subjects, day 84 vs prior to injection. The procedure: 28 patients with submental skin fold thickness greater than 1.5 cm as measured with calipers were divided into two cohorts, Cohort 1 (12 patients) and Cohort 2 (16 subjects). In Cohort 1, 8 subjects were injected with a 50 mg per mL solution of 5-(3,6-dibromo-9H-carbazol-9-yl)-N,N,N-trimethylpentan-1-aminium chloride (Compound 1A) in a vehicle comprising water, propylene glycol, and a surfactant, and 4 patients were injected with a placebo solution comprising vehicle only. In Cohort 2, 6 patients were dosed with a placebo solution comprising vehicle only, and 10 patients were injected with a 50 mg per mL solution of 5-(3,6-dibromo-9H-carbazol-9-yl)-N,N,N-trimethylpentan-1-aminium chloride in a vehicle comprising water, propylene glycol, and a surfactant. […] Cohort 2 subjects began treatment after Cohort 1 was evaluated for safety on day 28 post-injection. Submental fat volume was determined via magnetic resonance imaging (MRI) prior to injection and on day 84 post-injection. Treatment efficacy was evaluated via the Physician’s Global Assessment (PGS) questionnaire on days 28, 56, and 84 after injection, as described above. Patient satisfaction was assessed using the FACE-Q questionnaire prior to injection and on days 28, 56, and 84 after injection, as described above.

Series [2] has as its system submental fat. As to the kind of experiment: Phase 2a study: Physician Impression scale (physician's global assessment of submental fat). The settings on record: human, 18 treated subjects (low and high dose), Day 84 vs baseline. The procedure:
28 patients with submental skin fold thickness greater than 1.5 cm as measured with calipers were divided into two cohorts, Cohort 1 (12 patients) and Cohort 2 (16 subjects). In Cohort 1, 8 subjects were injected with a 50 mg per mL solution of 5-(3,6-dibromo-9H-carbazol-9-yl)-N,N,N-trimethylpentan-1-aminium chloride (Compound 1A) in a vehicle comprising water, propylene glycol, and a surfactant, and 4 patients were injected with a placebo solution comprising vehicle only. […] Dosing is determined by cohort, as shown in Table 6 below: The maximum compound dose was 120 mg per patient (a total of 48 injections at 2.5 mg per injection) for Cohort 1 and 240 mg per patient (a total of 48 injections at 5 mg per injection) for Cohort 2. […] Cohort 2 subjects began treatment after Cohort 1 was evaluated for safety on day 28 post-injection. […] Submental fat volume was determined via magnetic resonance imaging (MRI) prior to injection and on day 84 post-injection. Treatment efficacy was evaluated via the Physician’s Global Assessment (PGS) questionnaire on days 28, 56, and 84 after injection, as described above. Patient satisfaction was assessed using the FACE-Q questionnaire prior to injection and on days 28, 56, and 84 after injection, as described above.

Series [3] relates to submental fat. Kind of series: Phase 2a study: Subject Face-Q Questionnaire (subject satisfaction). As to conditions: human subjects, Day 84 vs. baseline. The protocol: 28 patients with submental skin fold thickness greater than 1.5 cm as measured with calipers were divided into two cohorts, Cohort 1 (12 patients) and Cohort 2 (16 subjects). In Cohort 1, 8 subjects were injected with a 50 mg per mL solution of 5-(3,6-dibromo-9H-carbazol-9-yl)-N,N,N-trimethylpentan-1-aminium chloride (Compound 1A) in a vehicle comprising water, propylene glycol, and a surfactant, and 4 patients were injected with a placebo solution comprising vehicle only. […] Dosing is determined by cohort, as shown in Table 6 below: The maximum compound dose was 120 mg per patient (a total of 48 injections at 2.5 mg per injection) for Cohort 1 and 240 mg per patient (a total of 48 injections at 5 mg per injection) for Cohort 2. […] Cohort 2 subjects began treatment after Cohort 1 was evaluated for safety on day 28 post-injection. Subjects were also evaluated by a Face-Q Questionnaire, at baseline visit prior to injection and at posttreatment follow up visits on Days 28, 56, and 84. […] Submental fat volume was determined via magnetic resonance imaging (MRI) prior to injection and on day 84 post-injection. Treatment efficacy was evaluated via the Physician’s Global Assessment (PGS) questionnaire on days 28, 56, and 84 after injection, as described above. […]

Series [4] can be described thus: Phase 2a study: safety and tolerability (adverse events, vital signs). As to conditions: human subjects. The procedure: 28 patients with submental skin fold thickness greater than 1.5 cm as measured with calipers were divided into two cohorts, Cohort 1 (12 patients) and Cohort 2 (16 subjects). In Cohort 1, 8 subjects were injected with a 50 mg per mL solution of 5-(3,6-dibromo-9H-carbazol-9-yl)-N,N,N-trimethylpentan-1-aminium chloride (Compound 1A) in a vehicle comprising water, propylene glycol, and a surfactant, and 4 patients were injected with a placebo solution comprising vehicle only. In Cohort 2, 6 patients were dosed with a placebo solution comprising vehicle only, and 10 patients were injected with a 50 mg per mL solution of 5-(3,6-dibromo-9H-carbazol-9-yl)-N,N,N-trimethylpentan-1-aminium chloride in a vehicle comprising water, propylene glycol, and a surfactant.
The maximum compound dose was 120 mg per patient (a total of 48 injections at 2.5 mg per injection) for Cohort 1 and 240 mg per patient (a total of 48 injections at 5 mg per injection) for Cohort 2. Injections were given at a 90° angle to the injected skin surface and spaced of a submental area-shaped grid in which the distance between rows was 1 cm and the distance between columns was also 1 cm. Cohort 2 subjects began treatment after Cohort 1 was evaluated for safety on day 28 post-injection.

Regarding `C[N+](C)(C)CCCCCn1c2ccc(Br)cc2c2cc(Br)ccc21.[Cl-]` [Compound 1A, 5-(3,6-dibromo-9H-carbazol-9-yl)-N,N,N-trimethylpentan-1-aminium chloride], the “Submental fat volume reduction (MRI)” value in the series on submental fat [1] (high dose (Cohort 2, 5 mg/injection, up to 240 mg), P<0.05 vs the placebo group) is on record as -22.2% ± 14.9; in the series with submental fat [1] (low dose (Cohort 1, 2.5 mg/injection, up to 120 mg), P=0.55 vs the placebo group, NS), -10.6% ± 14.5. In addition, the “Subjects demonstrating improvement in submental fat (Physician Impression scale)” value with submental fat [2] was “all but one of the 18”. Also, the entries for the “Fold increase in mean subject satisfaction score (Face-Q)” value in the series with submental fat [3] (high dose) and with submental fat [3] (low dose) were 2.5 fold and 2.4 fold, respectively. In addition, in series [4] (high dose group, particularly in the first 24 hours following injection), the “Severity of edema and induration compared to placebo” value is listed as “higher severity”. For the same compound, in series [4] (low and high doses (averaged doses of 80 mg and 158.5 mg), no clinically significant changes in vital signs), the Safety and tolerability result is “safe and well tolerated”.
